Measured values from US20050222122A1, “Statin therapy for enhancing cognitive maintenance” (priority 2002, published 2005).

Key:
[1] = system: patients with Alzheimer's disease; experiment: Change in ADAS-cog/11 in combined double-blind, placebo-controlled galantamine clinical trials (5 to 6 months); type: in vivo, human; conditions: combined trial data, galantamine 24 mg daily, controls for study and AD severity
Procedure: The objective was to evaluate the effect of statins on cognitive maintenance in patients with Alzheimer's disease during 5- and 6-month randomized clinical trials of galantamine.
Data were combined from 3 double-blind, placebo-controlled clinical trials limited to patients treated with galantamine 24 mg daily or placebo
Patients were categorized based on galantamine status and any statin use.
Changes in the Alzheimer's Disease Assessment Scale-cognitive subscale with standard 11 items (ADAS-cog/11) using last observation carried forward (LOCF) were assessed
Comparisons between patient subgroups were made controlling for relevant confounding factors.

serum β-amyloid = conditions: patients with high low-density lipoprotein cholesterol; lovastatin 40 or 60 mg; cited from earlier work

With `COc1ccc2c3c1O[C@H]1C[C@@H](O)C=C[C@@]31CCN(C)C2` [GAL 24 only, (4aS,6R,8aS)-4a, 5,9,10,11,12-hexahydro-3-methoxy-1 1-methyl-6H-benzofuro[3a,3,2-ef][2]benzazepin-6-ol] the “ADAS-Cog change score, LS Means (SE)” value ([1]; Intent-to-treat analysis (LOCF)) was −0.88 (0.25), the “ADAS-Cog change score, LS Means (SE)” value ([1]; Intent-to-treat analysis (LOCF), listed as GAL-only) was −0.88 and the “ADAS-Cog change score, LS Means (SE)” value ([1]; Observed cases) was −0.61 (0.28).

For `CC[C@H](C)C(=O)O[C@H]1C[C@@H](C)C=C2C=C[C@H](C)[C@H](CC[C@@H]3C[C@@H](O)CC(=O)O3)[C@H]21` [lovastatin], the “serum β-amyloid” value (serum β-amyloid) is given as “decreased serum β-amyloid”.
